Experimental data from patent publication US11471444B2, “Methods of inhibiting tumor metastasis” (Vanderbilt University, priority 2017, dated 2022).

How the values were obtained:
4T1-RFP-luciferase cells [1] = assay: Orthotopic 4T1 mouse model of metastasis (second experiment); type: in vivo, Balb/C mice; details: ifetroban 50 mg/kg daily or aspirin 12 mg/kg daily from tumor volume 50 mm^3; lungs harvested approx. 4 weeks later; FIG. 3
Description: 1×10^5 4T1-RFP-luciferase cells were implanted into the left inguinal mammary fatpads of 6-week old, virgin WT Balb/C female mice as above. Mice were treated by orogastric gavage with ifetroban (50 mg/kg daily) or vehicle control when average tumor volume reached 50 mm^3 as above. Additionally a third group was treated with aspirin (12 mg/kg daily). Lungs were harvested approximately 4 weeks later. Lungs were assessed by whole mount hematoxylin staining to enumerate surface metastases (macro metastases) (FIG. 3).

[2] = tested on: MDA-MB-231 (breast) cancer cells; assay: Hematogenous metastasis of breast cancer cells (tail vein injection); type: in vivo, nu/nu mice; details: 50 mg/kg by orogastric gavage, pre-treated 24 hours, daily for 21 days; FIG. 8
Description: (§1) MDA-MB-231 (breast), MiaPaca2 (pancreas) and A549 (lung) cancer cells were delivered by tail vein injection to nu/nu mice pre-treated 24 hours by orogastric gavage with ifetroban (50 mg/kg; N=10 per group) or vehicle (N=10). Mice continued daily treatment for an additional 21 days. On day 21, lungs were harvested and assessed for metastases. N=9, P value, Student's t-test.

[3] = tested on: MiaPaca2 (pancreas) cancer cells; assay: Hematogenous metastasis of pancreatic cancer cells (tail vein injection); type: in vivo, nu/nu mice; details: 50 mg/kg by orogastric gavage, pre-treated 24 hours, daily for 21 days; FIG. 8
Description: as §1

MDA-MB-231 cells = assay: Lung metastases after tail vein injection of MDA-MB-231 cells; type: in vivo, mice; details: 50 mg/kg daily by orogastric gavage from 48 h before cell injection, continued 3 weeks; FIG. 4
Description: Mice were randomized into groups receiving treatment by orogastric gavage with ifetroban (50 mg/kg daily) or vehicle, using 10 mice in both the ifetroban and control groups and 4% sucrose in water for the vehicle. Mice were treated 48 h prior to hematogenous delivery of MDA-MB-231 cells (1×10^5 cells) by tail vein injection, and ifetroban treatment was continued for 3 weeks thereafter, at which point lungs were collected from each mouse, and lung metastatic lesions visible to the naked eye were counted (FIG. 4).

[4] = Total body weight of 4T1 tumor-bearing mice; type: in vivo, Balb/C mice; details: 50 mg/kg daily for 3 weeks; FIG. 5C
Description: (§2) 1×10^5 4T1-RFP-luciferase cells were implanted into the left inguinal mammary fat pads of 6-week old, virgin WT Balb/C female mice. Mice were treated by orogastric gavage with ifetroban (50 mg/kg daily; N=8) or vehicle control (N=4) when average tumor volume reached 200 mm^3. […] Mouse total body weight was not affected by Ifetroban treatment (50 mg/kg daily) for 3 weeks (FIG. 5C).

A549 (lung) cancer cells = assay: Hematogenous metastasis of lung cancer cells (tail vein injection); type: in vivo, nu/nu mice; details: 50 mg/kg by orogastric gavage, pre-treated 24 hours, daily for 21 days; FIG. 8
Description: as §1

4T1 cells = assay: 4T1 cell culture growth and viability; type: cell-based; details: treated for 96 hours; FIG. 5A
From the text: For cell culture experiments, vehicle is PBS.

4T1-RFP-luciferase cells [5] = assay: Orthotopic 4T1 mouse model of metastasis (first experiment); type: in vivo, Balb/C mice
Description: 1×10^5 4T1-RFP-luciferase cells were implanted into the left inguinal mammary fatpads of 6-week old, virgin WT Balb/C female mice using the following protocol. Mammary tumor cells (4T1-RFP-luciferase cells) are collected by trypsinization, counted, and resuspended in 50 microliters of serum-free media+50 microliters of growth factor-reduced Matrigel, for a total volume of 100 microliters. The cells are loaded into a syringe with a 26-g needle. The cells are injected into the inguinal mammary gland, which lies directly under (and attached to) the skin. The entire injection procedure takes about 10 seconds per mouse. Mice were treated by orogastric gavage with ifetroban (50 mg/kg daily) or vehicle control when average tumor volume reached 200 mm^3, using 8 mice in the ifetroban treatment group, 4 mice in the control group, and 4% sucrose in water for the vehicle. Tumors, lungs and plasma were harvested approximately 3 weeks later. Lungs were assessed by whole mount hematoxylin staining to enumerate surface metastases (macro metastases) (FIG. 1). Lungs were sectioned and stained with hematoxylin and eosin to confirm that hematoxylin-stained nodules were metastatic lesions, and to enumerate microscopic metastases (FIG. 2).
as §2

| Compound | surface lung metastases (macro metastases) (4T1-RFP-luciferase cells [1]) | hematogenous metastasis to lungs, breast cancer cells [2] | hematogenous metastasis to lungs, pancreatic cancer cells [3] | lung metastatic lesions visible to the naked eye (MDA-MB-231 cells) | total mouse body weight [4] | hematogenous metastasis to lungs, lung cancer cells (A549 (lung) cancer cells) | 4T1 cell number (automated cell counting) (4T1 cells) | number of apoptotic 4T1 cells (Annexin V staining) (4T1 cells) | microscopic lung metastases (4T1-RFP-luciferase cells [5]; 50 mg/kg daily by orogastric gavage from tumor volume 200 mm^3, approx. 3 weeks, lung sections, hematoxylin and eosin, FIG. 2) | surface lung metastases (macro metastases) (4T1-RFP-luciferase cells [5]; 50 mg/kg daily by orogastric gavage from tumor volume 200 mm^3, lungs harvested approx. 3 weeks later, whole mount hematoxylin staining, FIG. 1) | primary tumor volume (4T1-RFP-luciferase cells [5]; 50 mg/kg daily for 3 weeks, FIG. 5B) |
| --- | --- | --- | --- | --- | --- | --- | --- | --- | --- | --- | --- |
| CC(=O)Oc1ccccc1C(=O)O [aspirin] | decrease | – | – | – | – | – | – | – | – | – | – |
| CCCCCNC(=O)c1coc([C@H]2[C@@H](Cc3ccccc3CCC(=O)O)[C@@H]3CC[C@H]2O3)n1 [ifetroban] | decrease | decreased | decreased | decrease | not affected | decreased | no ifetroban-mediated changes | no ifetroban-mediated changes | decrease | decrease | did not affect |
